From patent US20200129528A1, “METHODS FOR TREATING BLOOD PRESSURE CONDITIONS USING AMINOSTEROL COMPOSITIONS” (Enterin, Inc., priority 2018, published 2020)
Where “and” joins values, the source holds several entries; their conditions need not be identical. Equal entries are not always repeated. Entries after “also recorded” stand apart in the source; their conditions may differ.

Legend:
Format in all cases: in vivo, human
[1] = system: patients with PD and constipation; assay: Neurological (CNS) symptoms in Stage 2: UPDRS, MMSE, PDHQ, BDI-II; conditions: for patients in whom hallucinations or delusions improved or disappeared during treatment: 6 patients with hallucinations (5) or delusions (1) at baseline
Description: (8) Beck Depression Inventory (BDI-II);
(9) Unified Parkinson's Disease Rating Scale (UPDRS), which consists of 42 items in four subscales (Part I=Non-Motor Aspects of Experiences of Daily Living (nM-EDL) (1.1 cognitive impairment, 1.2 hallucinations and psychosis, 1.3 depressed mood, Part II=Motor Aspects of Experiences of Daily Living (M-EDL), Part III=Motor Examination, and Part IV=Motor Complications;
(10) Mini Mental State Examination (MMSE);
(12) The University of Miami Parkinson's Disease Hallucinations Questionnaire (UM-PDHQ);
Exploratory end-points, in addition to constipation, included for example, (i) depression assessed using the Beck Depression Inventory (BDI-II) (Steer et al. 2000) and Unified Parkinson's Disease Rating Scale (UPDRS); (ii) cognition assessed using the Mini Mental State Examination (MMSE) (Palsteia et al. 2018), Unified Parkinson's Disease Rating Scale (UPDRS), and Trail Making Test (TMT); (iii) sleep and REM-behavior disorder (RBI)) using a daily sleep diary, I-Button Temperature Assessment, a REM sleep behavior disorder (RBD) questionnaire (RBDQ) (Stiasny-Kolster et al. 2007), and the UPDRS; (iv) hallucinations assessed using the PD hallucinations questionnaire (PDHQ) (Papapetropoulos et al. 2008), the UPDRS, and direct questioning; (v) fatigue using the Parkinson's Disease Fatigue Scale (PFS-16) and the UPDRS; (vi) motor functions using the UPDRS; and (vii) non-motor functions using the UPDRS.
(§1) Assessments were made at baseline and at the end of the fixed dose and washout periods. Circadian system status was evaluated by continuously monitoring wrist skin temperature (Thermochron iButton DS1921H; Maxim, Dallas) following published procedures (Sarabia et al. 2008).
An exploratory analysis was done with respect to the sleep data, the body temperature data, mood, fatigue, hallucinations, cognition and other motor and non-motor symptoms of PD. Continuous measurements within a subject were compared with a paired t-test and continuous measurements between subject groups were compared with a two-group t-test. Categorical data were compared with a chi-squared test or a Fisher's exact test if the expected cell counts are too small for a chi-squared test.

[2] = system: patients with PD and constipation; assay: Phase 2 trial Stage 1: adverse events; conditions: Stage 1, 10 dosed
Description: Tolerability limits included diarrhea or vomiting.

[3] = system: patients with PD and constipation; assay: Circadian rhythm of wrist skin temperature; conditions: for circadian rhythm of wrist skin temperature (IS, RA, CFI, IV): 12 evaluable patients, fixed dose versus baseline
Method: (6) I-Button Temperature Assessment. The 1-Button is a small, rugged self-sufficient system that measures temperature and records the results in a protected memory section. The Thermochron I-Button DS1921H (Maxim Integrated, Dallas, Tex.) was used for skin temperature measurement. I-Buttons were programmed to sample every 10 mins., and attached to a double-sided cotton sport wrist band using Velcro, with the sensor face of the I-Button placed over the inside of the wrist, on the radial artery of the dominant hand. Subjects removed and replaced the data logger when necessary (i.e., to have a bath or shower). The value of skin temperature assessment in sleep research is that the endogenous skin warming resulting from increased skin blood flow is functionally linked to sleep propensity. From the collected data, the mesor, amplitude, acrophase (time of peak temperature), Rayleight test (an index of interdaily stability), mean waveforms are calculated.);
as §1
Circadian rhythm of skin temperature was evaluable in 12 patients (i.e., those who had recordings that extended from baseline through washout). Circadian system functionality was evaluated by continuously monitoring wrist skin temperature using a temperature sensor (Thermochron iButton DS1921H; Maxim, Dallas, Tex.) (Sarabia et al. 2008). […]
Briefly, this analysis includes the following parameters: (i) the inter-daily stability (the constancy of 24-hour rhythmic pattern over days, IS); (ii) intra-daily variability (rhythm fragmentation, IV); (iii) average of 10-minute intervals for the 10 hours with the minimum temperature (L10); (iv) average of 10-minute intervals for the 5 hours with the maximum temperature ([…]) and the relative amplitude (RA), which was determined by the difference between M5 and L10, divided by the sum of both. […]

Q: How did the “time without return of hallucinations/delusions after discontinuation” value ([1]; 1 patient) turn out when `CC(C)[C@@H](CC[C@@H](C)[C@H]1CC[C@H]2[C@@H]3[C@H](O)C[C@H]4C[C@@H](NCCCNCCCCN)CC[C@]4(C)[C@H]3CC[C@]12C)OS(=O)(=O)O` (single isomer, unassigned) [ENT-01, squalamine] was run?
A: The value was 4 weeks.

Q: And the “patients in whom hallucinations or delusions improved or disappeared during treatment” value (from here on “patients”) [1]?
A: The value was “five”.

Q: What about the “patients” value ([1]; listed as aminosterol) of the same molecule?
A: The value was “five and 5 of 6”.

Q: What about the “patients” value ([1]; listed as squalamine (ENT-01)) of the same molecule?
A: Its value is 5 of 6.

Q: And the “time without return of hallucinations/delusions after discontinuation” value ([1]; another patient)?
A: Its value is 2 weeks.

Q: And the “Abdominal pain, mild” value [2]?
A: Its value is 2(20) n, %.

Q: And the “Abdominal pain, moderate” value [2]?
A: Its value is 3(30) n, %.

Q: And the “Diarrhea, mild” value [2]?
A: The value was 1(10) n, %.

Q: What about the “Diarrhea, moderate” value [2] of the same molecule?
A: The value was 3(30) n, %.

Q: What about the “Flatulence, mild” value [2] of the same molecule?
A: Its value is 2(20) n, %.

Q: What about the “Headache, mild” value [2] of the same molecule?
A: Its value is 1(10) n, %.

Q: And the “Vomiting, mild” value [2]?
A: The value was 1(10) n, %.

Q: What about the “Blood in urine, mild” value ([2]; unrelated to ENT-01) of the same molecule?
A: The value was 1(10) n, %.

Q: And the “Loss of appetite, mild” value ([2]; unrelated to ENT-01)?
A: The value was 1(10) n, %.

Q: And the “circadian rhythm of wrist skin temperature (IS, RA, CFI, IV)” value [3]?
A: Its value is “significant positive impact; also recorded: improved all markers of healthy circadian function”.

Q: And the “circadian rhythm of wrist skin temperature (IS, RA, CFI, IV)” value ([3]; listed as Aminosterol)?
A: The value was “improved all markers of healthy circadian function”.

Q: What about the “circadian rhythm parameters during wash-out” value ([3]; wash-out period (IS, CFI)) of the same molecule?
A: The value was “persisted for several of these circadian parameters”.
